# EPA's ToxRefDB 2
# Columns and labels:
# mouse [1] = details: Subchronic oral toxicity in rodents, b6c3f1, Feed, dose end: 13 week
# mouse [2] = details: Fertility (Segment I); cd1; Oral; Gavage/Intubation; dose end: 1 generation; group: parental; systemic / pathology gross / sperm measure / sperm morphology
# rat [3] = details: Subchronic oral toxicity in rodents, fischer, Feed, dose end: 13 week
# rabbit [4] = details: Sub-acute dermal toxicity, new zealand white, Topical, dose end: 21 day, group: systemic
# rat [5] = details: Prenatal developmental toxicity study, sprague dawley, Oral, Gavage/Intubation, dose end: 15 GD
# guinea-pig = details: Subchronic dermal toxicity, hartley, Topical, dose end: 13 week, group: systemic
# rat [6] = details: Prenatal developmental toxicity study, sprague dawley, Oral, Gavage/Intubation, dose end: 16 GD
# rabbit [7] = details: Prenatal developmental toxicity study, new zealand white, Dermal, Topical, dose end: 18 GD
# rat [8] = details: Prenatal developmental toxicity study, sprague dawley, Oral, Gavage/Intubation, dose end: 16 GD; remark: listed apart in the source
# rat [9] = details: Prenatal developmental toxicity study, wistar, Oral, Gavage/Intubation, dose end: 17 GD
# rat [10] = details: Multigenerational reproductive toxicity study, sprague dawley, Oral, Feed, dose end: 2 generation
# rat [11] = details: Subchronic oral toxicity in rodents, sprague dawley, Feed, dose end: 3 month, group: systemic
# rat [12] = details: Multigenerational reproductive toxicity study, Sprague-Dawley, Oral, Feed, dose end: 1 generation
# rat [13] = details: Subchronic inhalation toxicity, other, Nose-Only, dose end: 90 day, group: systemic, systemic / pathology microscopic / nose / [other] + systemic / pathology microscopic / nose / degeneration + systemic / pathology …
# rat [14] = details: Sub-acute dermal toxicity, other, Topical, dose end: 28 day, group: systemic
# [15] = group: maternal, reproductive / reproductive performance / estrous cycle / length
# [16] = group: systemic, systemic / in life observation / body weight / body weight + systemic / in life observation / clinical signs / drooping eyelids (ptosis) + …
# [17] = group: systemic, systemic / clinical chemistry / alkaline phosphatase (alp/alk) / alkaline phosphatase (alp/alk) + systemic / clinical chemistry / bile acids…
# [18] = systemic / clinical chemistry / glucose / glucose
# [19] = systemic / in life observation / clinical signs / desquamation + systemic / in life observation / clinical signs / erythema + systemic / in …
# [20] = group: developmental, developmental / developmental malformation / bone / short supernumerary + developmental / developmental malformation / eye / anophthalmia + …
# [21] = group: maternal, systemic / in life observation / body weight / body weight gain + systemic / in life observation / food consumption / food consumption
# [22] = group: maternal, systemic / in life observation / body weight / body weight gain + systemic / in life observation / food consumption / food consumption + …
# [23] = systemic / clinical chemistry / lactic acid dehydrogenase (ldh) / lactic acid dehydrogenase (ldh) + systemic / hematology / mean corpuscular…
# [24] = systemic / pathology microscopic / liver / fatty change + systemic / pathology microscopic / liver / necrosis + systemic / urinalysis / …
# [25] = group: developmental, developmental / developmental malformation / aortic arch / [other] + developmental / developmental malformation / aortic arch / malformation…
# [26] = group: developmental, developmental / developmental malformation / bone / ossification sites + developmental / developmental malformation / bone / supernumerary…
# [27] = group: maternal, reproductive / reproductive performance / resorptions / resorptions + reproductive / offspring survival early / litter size / litter size
# [28] = group: developmental, developmental / developmental malformation / bone / delayed ossification + developmental / developmental malformation / bone / knobby + …
# [29] = group: maternal, reproductive / reproductive performance / resorptions / resorptions + systemic / hematology / erythrocyte (rbc) count differential / …
# [30] = group: developmental, developmental / developmental malformation / bone / misaligned + developmental / developmental malformation / bone / ossification sites + …
# [31] = group: maternal, reproductive / reproductive performance / resorptions / resorptions + systemic / in life observation / body weight / body weight + systemic…
# [32] = group: developmental, systemic / in life observation / body weight / offspring (pup) weight gain + developmental / developmental malformation / aortic arch / …
# [33] = group: maternal, reproductive / offspring survival early / live fetuses / live fetuses + reproductive / offspring survival early / litter size / litter size…
# [34] = group: offspring, developmental / developmental malformation / trunk / umbilical hernia + developmental / offspring survival late / [other] / [other] + …
# [35] = group: parental, systemic / in life observation / clinical signs / body cold to touch + systemic / in life observation / clinical signs / drooping eyelids (…
# [36] = group: parental, systemic / pathology microscopic / thyroid gland / colloid content + systemic / pathology microscopic / thyroid gland / hypertrophy + …
# [37] = group: reproductive, reproductive / reproductive performance / dystocia / dystocia + reproductive / reproductive performance / postimplantation loss / …
# [38] = systemic / clinical chemistry / cholesterol / cholesterol + systemic / clinical chemistry / phosphorus / phosphorus + systemic / pathology …
# [39] = group: offspring, systemic / in life observation / body weight / offspring (pup) weight + systemic / in life observation / clinical signs / reduced activity
# [40] = group: parental, systemic / clinical chemistry / thyroid stimulating hormone (thyrotropin) (tsh) / thyroid stimulating hormone (=thyrotropin) (tsh) + …
# [41] = group: parental, systemic / in life observation / clinical signs / nasal discharge + systemic / in life observation / body weight / body weight + systemic / …
# [42] = group: reproductive, reproductive / offspring survival early / dead fetuses / dead fetuses + reproductive / offspring survival early / litter size / litter size…
# [43] = group: reproductive, reproductive / reproductive performance / reproductive performance other / NOS + reproductive / reproductive performance / pregnancy index…
# [44] = systemic / hematology / leukocyte (wbc) count differential / leukocyte (wbc) + systemic / hematology / neutrophils / neutrophils + systemic…
# [45] = systemic / pathology microscopic / thyroid gland / altered colloid + systemic / pathology microscopic / thyroid gland / hypertrophy
structure (smiles),measurement,setting,value
"NC(=Nc1ccccc1)Nc1ccccc1 [1,3-Diphenylguanidine]",LEL,mouse [1]; [15],577 mg/kg/day
same,LOAEL,mouse [1]; [15],> 577 mg/kg/day
same,NEL,mouse [1]; [15],285 mg/kg/day
same,NOAEL,mouse [1]; [15],≥ 577 mg/kg/day
same,LOAEL,"mouse [1]; group: systemic, systemic / in life observation / body weight / body weight + systemic / in life observation / clinical signs / drooping eyelids (ptosis)",231 mg/kg/day
same,NEL,mouse [1]; [16],38 mg/kg/day
same,NOAEL,mouse [1]; [16],114 mg/kg/day
same,LEL,"mouse [1]; group: systemic, systemic / organ weight / liver / relative to body weight",75 mg/kg/day
same,LEL,mouse [2],16 mg/kg/day
same,LOAEL,mouse [2],> 16 mg/kg/day
same,NEL,mouse [2],4 mg/kg/day
same,NOAEL,mouse [2],≥ 16 mg/kg/day
same,LEL,rat [3]; [15],49 mg/kg/day
same,LOAEL,rat [3]; [15],> 184 mg/kg/day
same,NEL,rat [3]; [15],32 mg/kg/day
same,NOAEL,rat [3]; [15],≥ 184 mg/kg/day
same,LEL,rat [3]; [17],17 mg/kg/day
same,LOAEL,rat [3]; [17],95 mg/kg/day
same,NEL,rat [3]; [17],< 17 mg/kg/day
same,NOAEL,rat [3]; [17],49 mg/kg/day
O=S(=O)(C(Cl)(Cl)Cl)C(Cl)(Cl)Cl [Bis(trichloromethyl)sulfone],LEL,rabbit [4]; [18],0.8 mg/kg/day
same,NEL,rabbit [4]; [18],< 0.8 mg/kg/day
same,LOAEL,rabbit [4]; [19],5 mg/kg/day
same,NOAEL,rabbit [4]; [19],2 mg/kg/day
same,LEL,rat [5]; [20],50 mg/kg/day
same,LOAEL,rat [5]; [20],50 mg/kg/day
same,NEL,rat [5]; [20],10 mg/kg/day
same,NOAEL,rat [5]; [20],10 mg/kg/day
same,LEL,rat [5]; [21],10 mg/kg/day
same,LOAEL,rat [5]; [21],10 mg/kg/day
same,NEL,rat [5]; [22],2 mg/kg/day
same,NOAEL,rat [5]; [22],2 mg/kg/day
COCCOCCO [Diethylene glycol monomethyl ether],LOAEL,guinea-pig; [23],> 1000 mg/kg/day
same,NOAEL,guinea-pig; [23],≥ 1000 mg/kg/day
same,LEL,guinea-pig; [24],40 mg/kg/day
same,NEL,guinea-pig; [24],< 40 mg/kg/day
same,LOAEL,rat [6]; [25],> 2160 mg/kg/day
same,NOAEL,rat [6]; [25],≥ 2160 mg/kg/day
same,LEL,rat [6]; [26],720 mg/kg/day
same,NEL,rat [6]; [26],< 720 mg/kg/day
same,NEL,"rat [6]; group: maternal, reproductive / reproductive performance / resorptions / resorptions",720 mg/kg/day
same,LEL,rat [6]; [27],2160 mg/kg/day
same,LOAEL,rat [6]; [27],> 2160 mg/kg/day
same,NOAEL,rat [6]; [27],≥ 2160 mg/kg/day
same,LEL,rabbit [7]; [28],250 mg/kg/day
same,LOAEL,rabbit [7]; [28],> 750 mg/kg/day
same,NEL,rabbit [7]; [28],50 mg/kg/day
same,NOAEL,rabbit [7]; [28],≥ 750 mg/kg/day
same,LEL,rabbit [7]; [29],750 mg/kg/day
same,LOAEL,rabbit [7]; [29],> 750 mg/kg/day
same,NEL,rabbit [7]; [29],250 mg/kg/day
same,NOAEL,rabbit [7]; [29],≥ 750 mg/kg/day
same,LOAEL,rat [8]; [30],> 5180 mg/kg/day
same,NEL,rat [8]; [30],1000 mg/kg/day
same,NOAEL,rat [8]; [30],≥ 5180 mg/kg/day
same,LEL,"rat [8]; group: developmental, developmental / developmental malformation / bone / ossification sites",1500 mg/kg/day
same,LOAEL,rat [8]; [31],> 5180 mg/kg/day
same,NEL,rat [8]; [31],2240 mg/kg/day
same,NOAEL,rat [8]; [31],≥ 5180 mg/kg/day
same,LEL,"rat [8]; group: maternal, systemic / in life observation / body weight / body weight + systemic / in life observation / food consumption / food consumption + …",3340 mg/kg/day
same,NEL,"rat [9]; group: developmental, systemic / in life observation / body weight / offspring (pup) weight gain",200 mg/kg/day
same,LOAEL,rat [9]; [32],> 1800 mg/kg/day
same,NOAEL,rat [9]; [32],≥ 1800 mg/kg/day
same,LEL,"rat [9]; group: developmental, systemic / in life observation / body weight / offspring (pup) weight gain + developmental / developmental malformation / bone / …",600 mg/kg/day
same,LEL,"rat [9]; group: maternal, reproductive / offspring survival early / live fetuses / live fetuses",600 mg/kg/day
same,NEL,"rat [9]; group: maternal, reproductive / offspring survival early / live fetuses / live fetuses + reproductive / offspring survival early / litter size / litter size",200 mg/kg/day
same,LOAEL,rat [9]; [33],> 1800 mg/kg/day
same,NOAEL,rat [9]; [33],≥ 1800 mg/kg/day
Cc1ccc(S(=O)(=O)C(I)I)cc1 [Diiodomethyl 4-methylphenyl sulfone],LOAEL,rat [10]; [34],> 40 mg/kg/day
same,NEL,rat [10]; [34],2.5 mg/kg/day
same,NOAEL,rat [10]; [34],≥ 40 mg/kg/day
same,LEL,"rat [10]; group: offspring, systemic / in life observation / body weight / offspring (pup) weight + developmental / offspring survival late / viability index / …",10 mg/kg/day
same,LOAEL,rat [10]; [35],> 40 mg/kg/day
same,NOAEL,rat [10]; [35],≥ 40 mg/kg/day
same,LEL,rat [10]; [36],2.5 mg/kg/day
same,NEL,rat [10]; [36],< 2.5 mg/kg/day
same,LEL,rat [10]; [37],40 mg/kg/day
same,LOAEL,rat [10]; [37],> 40 mg/kg/day
same,NEL,rat [10]; [37],10 mg/kg/day
same,NOAEL,rat [10]; [37],≥ 40 mg/kg/day
same,LOAEL,rat [11]; [38],80 mg/kg/day
same,NEL,rat [11]; [38],5 mg/kg/day
same,NOAEL,rat [11]; [38],20 mg/kg/day
same,LEL,rat [11]; systemic / in life observation / clinical signs / scabbing,20 mg/kg/day
same,LEL,rat [12]; [39],80 mg/kg/day
same,LOAEL,rat [12]; [39],> 200 mg/kg/day
same,NEL,rat [12]; [39],20 mg/kg/day
same,NOAEL,rat [12]; [39],≥ 200 mg/kg/day
same,LOAEL,rat [12]; [40],> 200 mg/kg/day
same,NOAEL,rat [12]; [40],≥ 200 mg/kg/day
same,LEL,rat [12]; [41],20 mg/kg/day
same,NEL,rat [12]; [41],< 20 mg/kg/day
same,LEL,rat [12]; [42],80 mg/kg/day
same,NEL,rat [12]; [42],20 mg/kg/day
same,LOAEL,rat [12]; [43],> 200 mg/kg/day
same,NOAEL,rat [12]; [43],≥ 200 mg/kg/day
same,LEL,rat [13],0.41 ppm
same,LOAEL,rat [13],> 1.74 ppm
same,NEL,rat [13],0.0579 ppm
same,NOAEL,rat [13],≥ 1.74 ppm
same,LOAEL,rat [14]; [44],> 500 mg/kg/day
same,NOAEL,rat [14]; [44],≥ 500 mg/kg/day
same,LEL,rat [14]; [45],20 mg/kg/day
same,NEL,rat [14]; [45],< 20 mg/kg/day
